Data as given in ChEMBL document CHEMBL1201862, “PubChem BioAssay data set” (2004).
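The compound was tested at five concentrations on cells cultured in 96-well plates, with a 48-hour exposure period. Abbreviation: GI50, concentration required for 50% inhibition of growth.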 Calls of active or inactive are those of the source. No stated cut-off is given here; in the data, active = GI50 up to about 1.1 µM and inactive = higher.

How the values were obtained:
Assay in all cases: inhibition of tumour cell growth, NCI panel, 48 h
786-0 = system: 786-0
A498 = system: A498
A549 = system: A549
ACHN = system: ACHN
CAKI-1 = system: CAKI-1
CCRF-CEM = system: CCRF-CEM
COLO 205 = system: COLO 205
DLD-1 = system: DLD-1
DMS-114 = system: DMS-114
EKVX = system: EKVX
HCC 2998 = system: HCC 2998
HL-60 = system: HL-60
HOP-62 = system: HOP-62
HOP-92 = system: HOP-92
HT-29 = system: HT-29
IGROV-1 = system: IGROV-1
K562 = system: K562
KM-20L2 = system: KM-20L2
KM12 = system: KM12
LOX IMVI = system: LOX IMVI
LXFL 529 = system: LXFL 529
M14 = system: M14
M19-MEL = system: M19-MEL
MOLT-4 = system: MOLT-4
Malme-3M = system: Malme-3M
NCI-H226 = system: NCI-H226
NCI-H23 = system: NCI-H23
NCI-H460 = system: NCI-H460
NCI-H522 = system: NCI-H522
OVCAR-3 = system: OVCAR-3
OVCAR-4 = system: OVCAR-4
OVCAR-5 = system: OVCAR-5
OVCAR-8 = system: OVCAR-8
RPMI-8226 = system: RPMI-8226
RXF 393 = system: RXF 393
RXF 631 = system: RXF 631
SF-268 = system: SF-268
SF-295 = system: SF-295
SF-539 = system: SF-539
SK-MEL-28 = system: SK-MEL-28
SK-MEL-2 = system: SK-MEL-2
SK-MEL-5 = system: SK-MEL-5
SN12C = system: SN12C
SNB-19 = system: SNB-19
SNB-75 = system: SNB-75
SNB-78 = system: SNB-78
SW-620 = system: SW-620
TK-10 = system: TK-10
U-251 = system: U-251
UACC-257 = system: UACC-257
UO-31 = system: UO-31
XF498 = system: XF498
DMS-273 = system: DMS-273
HCT-116 = system: HCT-116
HCT-15 = system: HCT-15
SK-OV-3 = system: SK-OV-3
UACC-62 = system: UACC-62

Measured: GI50

CC1=C(C(=O)Nc2cc(=O)n(C)c(=O)n2C)C(c2ccco2)C(C(=O)Nc2cc(=O)n(C)c(=O)n2C)=C(C)N1
inactive: 786-0 > 100 µM | A498 > 100 µM | A549 > 100 µM | ACHN > 100 µM | CAKI-1 > 100 µM | CCRF-CEM > 100 µM | COLO 205 > 100 µM | DLD-1 > 100 µM | DMS-114 > 100 µM | EKVX > 100 µM | HCC 2998 > 100 µM | HL-60 > 100 µM | HOP-62 41.5 µM | HOP-92 48.5 µM | HT-29 > 100 µM | IGROV-1 > 100 µM | K562 > 100 µM | KM-20L2 > 100 µM | KM12 > 100 µM | LOX IMVI > 100 µM | LXFL 529 > 100 µM | M14 > 100 µM | M19-MEL > 100 µM | MOLT-4 > 100 µM | Malme-3M > 100 µM | NCI-H226 > 100 µM | NCI-H23 > 100 µM | NCI-H460 > 100 µM | NCI-H522 > 100 µM | OVCAR-3 > 100 µM | OVCAR-4 > 100 µM | OVCAR-5 > 100 µM | OVCAR-8 > 100 µM | RPMI-8226 > 100 µM | RXF 393 > 100 µM | RXF 631 > 100 µM | SF-268 > 100 µM | SF-295 > 100 µM | SF-539 > 100 µM | SK-MEL-28 > 100 µM | SK-MEL-2 > 100 µM | SK-MEL-5 > 100 µM | SN12C > 100 µM | SNB-19 > 100 µM | SNB-75 44.8 µM | SNB-78 > 100 µM | SW-620 > 100 µM | TK-10 > 100 µM | U-251 > 100 µM | UACC-257 > 100 µM | UO-31 > 100 µM | XF498 > 100 µM

O=S(=O)(C1=CC(S(=O)(=O)c2ccccc2)CN(Cc2ccccc2)C1c1cccc2ccccc12)c1ccccc1 (stereo unspecified)
inactive: 786-0 > 69 µM | A498 > 69 µM | A549 > 69 µM | ACHN > 69 µM | CAKI-1 20.7 µM | CCRF-CEM > 69 µM | DLD-1 > 69 µM | DMS-114 > 69 µM | DMS-273 > 69 µM | EKVX > 69 µM | HCC 2998 > 69 µM | HCT-116 > 69 µM | HL-60 > 69 µM | HOP-62 > 69 µM | HOP-92 6.3 µM | HT-29 > 69 µM | IGROV-1 > 69 µM | K562 > 69 µM | KM-20L2 > 69 µM | KM12 > 69 µM | LOX IMVI > 69 µM | M14 > 69 µM | M19-MEL > 69 µM | MOLT-4 > 69 µM | Malme-3M > 69 µM | NCI-H226 14.6 µM | NCI-H23 > 69 µM | NCI-H460 > 69 µM | NCI-H522 > 69 µM | OVCAR-3 > 69 µM | OVCAR-4 > 69 µM | OVCAR-5 > 69 µM | OVCAR-8 > 69 µM | RPMI-8226 > 69 µM | RXF 393 25.4 µM | RXF 631 > 69 µM | SF-268 > 69 µM | SF-295 > 69 µM | SF-539 > 69 µM | SK-MEL-28 > 69 µM | SK-MEL-2 > 69 µM | SK-MEL-5 > 69 µM | SK-OV-3 > 69 µM | SN12C > 69 µM | SNB-19 > 69 µM | SNB-75 > 69 µM | SNB-78 > 69 µM | SW-620 > 69 µM | TK-10 > 69 µM | U-251 > 69 µM | UACC-257 > 69 µM | UACC-62 > 69 µM | UO-31 > 69 µM
> 69 µM: HCT-15
